{"source": "patent US20220401408A1", "about": "“COMPOSITIONS AND METHODS FOR RESCUING RETINAL AND CHOROIDAL STRUCTURE AND FUNCTION” (AUCKLAND UNISERVICES LIMITED, priority 2019, published 2022)", "key": {"[1]": {"assay": "Estimated circulating concentration after oral tonabersat in peanut butter", "assay_type": "in vivo, Sprague Dawley (SD) rats", "description": "Tonabersat treatment of light damaged rats—LD rats were randomly assigned to low, middle or high dose of tonabersat (n=7 per group). The mixture of tonabersat in peanut butter was prepared fresh for each experiment. Three oral tonabersat doses were tested (n=7 per group) with follow up to 2 weeks post-injury, and the highest dose group then split with three animals taken for histological analysis, and four animals followed to 3 months post-injury. There was a ten-animal vehicle only control group. The group of rats that were kept for 3 months were maintained in separate cages for drug or vehicle-treated animals, but were kept under the same light conditions. Tonabersat was fed to animals in peanut butter at 0.26 mg/kg (on average 0.08 mg delivered, estimated circulating concentration 10 μM), 0.8 mg/kg (average of 0.24 mg delivered; 30 μM circulating) or 2.4 mg/kg (on average 0.72 mg delivered; 90 μM circulating) following consideration of previous unsuccessful human trial dosing levels. Silberstein S D. Tonabersat, a novel gap-junction modulator for the prevention of migraine. Cephalalgia. 2009; 29 Suppl 2:28-35; Dahlof C G, Hauge A W, Olesen J. Efficacy and safety of tonabersat, a gap-junction modulator, in the acute treatment of migraine: a double-blind, parallel-group, randomized study. Cephalalgia. 2009; 29 Suppl 2:7-16; Goadsby P J, Ferrari M D, Csanyi A, Olesen J, Mills J G, Tonabersat TONSG. Randomized, double-blind, placebo-controlled, proof-of-concept study of the cortical spreading depression inhibiting agent tonabersat in migraine prophylaxis. Cephalalgia. 2009; 29:742-50. […] The treatment groups were known to the investigator at the time of treatment, but groups were then randomized prior to statistical comparison which meant that analysis was conducted without the knowledge of which were treated or control animals. […] Two weeks later animals were again assessed with ERG and OCT and tissue collection proceeded immediately after, except for four rats in the high dose group that were under experimentation for 3 more months."}, "hyperglycemic rats": {"tested_on": "hyperglycemic rats", "assay": "OCT in hyperglycemic rat diabetic retinopathy model (aneurysms, layer thickness)", "assay_type": "in vivo, SD rats (spontaneously hyperglycemic strain)", "description": "Hyperglycemic Rat Diabetic Retinopathy Model—A spontaneously hyperglycemic strain of SD rats, which developed clinical signs of diabetic retinopathy within 4 weeks of birth were identified and isolated within the Vernon Jansen Animal Research Unit, Faculty of Medical and Health Sciences at the University of Auckland. The identification of these rats presenting with hyperglycemia and microaneurysms provided an opportunity to treat a complex, chronic disease model and assess the treatment effect based upon objective, measurable endpoints, despite lacking precise information on the etiology of the disease. Inbreeding was carried out over three generations and eyes were screened for abnormalities between 4-8 weeks of age. Additional information about these rats is presented as supplementary information. Glucose levels were tested in non-fasting rats (Lee J J, Yi H Y, Yang J W, Shin J S, Kwon J H, Kim C W. Characterization of streptozotocin-induced diabetic rats and pharmacodynamics of insulin formulations. Biosci Biotechnol Biochem. 2003; 67:2396-401) using a Freestyle Optium Glucometer (Abbott Laboratories Ltd., UK) and Freestyle Optium glucose strips.\nTen rats per group were the selected (10 normal SD and 10 hyperglycemic) grown to 5 weeks of age and assessed using OCT and ERG. The hyperglycemic rat group was then split into two subgroups of five, with one subgroup fed tonabersat once daily for 14 days from weeks 5 to 7 at a low dose level of 0.28 mg/kg in 0.5 g peanut butter, with the other subgroup fed 0.5 g peanut butter only. All animals were assessed again using ERG and OCT at 8 weeks of age before euthanizing animals and removing the eyes for immunohistochemical analysis. Data groups were randomized prior to the statistical comparison. In summary, normal SD and hyperglycemic rats were analyzed with OCT and ERG at 5 weeks of age; the hyperglycemic rats were then split into two groups and fed the vehicle or tonabersat for 14 days during weeks 6 and 7 of age. At week 8, animals were again assessed with ERG and OCT and tissues collected for immunohistochemical analysis. Four tonabersat-treated rats were, however, left until 3 months of age before final ERG and OCT and tissue collection.\nEvans Blue Dye Assessment of Vessel Leak—To investigate whether micro- and macro-aneurysms in the hyperglycemic rat retinas (observed using OCT) reflect sites of vessel leak, rats were perfused at the age of 3 months with Evans Blue dye as previously described. Cai S, Yang Q, Hou M, Han Q, Zhang H, Wang J, et al. Alpha-Melanocyte-Stimulating Hormone Protects Early Diabetic Retina from Blood-Retinal Barrier Breakdown and Vascular Leakage via MC4R. Cell Physiol Biochem. 2018; 45:505-22. Briefly, Evans Blue dye (30 mg/ml; Sigma-Aldrich, USA) was dissolved in normal saline and filtered. The dye was delivered as an injection into the rat-tail vein of normal SD and hyperglycemic rats at 45 mg/kg and allowed to circulate for 2 hours. Eyes were enucleated while rats were under deep anesthesia and an intracardial injection of 3M KCl was then administered rapidly to euthanize the animals. The posterior segment cups were fixed whole in 4% paraformaldehyde for 30 min and the retinas removed and laid flat. Evans Blue was stimulated at 559 nm wavelength and visualized by its red fluorescence emission using Olympus FluoView FV1000 (Olympus Corporation, Tokyo, Japan). […]"}, "[2]": {"assay": "Body weight of hyperglycemic rats", "assay_type": "in vivo, SD rats (spontaneously hyperglycemic strain)", "settings": "0.28 mg/kg once daily 14 days; week 8", "description": "Hyperglycemic Rat Diabetic Retinopathy Model—A spontaneously hyperglycemic strain of SD rats, which developed clinical signs of diabetic retinopathy within 4 weeks of birth were identified and isolated within the Vernon Jansen Animal Research Unit, Faculty of Medical and Health Sciences at the University of Auckland. The identification of these rats presenting with hyperglycemia and microaneurysms provided an opportunity to treat a complex, chronic disease model and assess the treatment effect based upon objective, measurable endpoints, despite lacking precise information on the etiology of the disease. Inbreeding was carried out over three generations and eyes were screened for abnormalities between 4-8 weeks of age. […]\nTen rats per group were the selected (10 normal SD and 10 hyperglycemic) grown to 5 weeks of age and assessed using OCT and ERG. […] All animals were assessed again using ERG and OCT at 8 weeks of age before euthanizing animals and removing the eyes for immunohistochemical analysis. […] In summary, normal SD and hyperglycemic rats were analyzed with OCT and ERG at 5 weeks of age; the hyperglycemic rats were then split into two groups and fed the vehicle or tonabersat for 14 days during weeks 6 and 7 of age. At week 8, animals were again assessed with ERG and OCT and tissues collected for immunohistochemical analysis. […]"}, "[3]": {"settings": "0.28 mg/kg once daily 14 days, week 8"}}, "data": [{"smiles": "CC(=O)c1ccc2c(c1)[C@H](NC(=O)c1ccc(F)c(Cl)c1)[C@H](O)C(C)(C)O2", "note": "[tonabersat, N-[(3S,4S)-6-acetyl-3-hydroxy-2,2-dimethyl-3,4-dihydrochromen-4-yl]-3-chloro-4-fluorobenzamide]", "values": [{"measurement": "estimated circulating concentration", "setting": "[1]; 0.26 mg/kg oral in peanut butter (on average 0.08 mg delivered)", "value": 10, "unit": "µM"}, {"measurement": "estimated circulating concentration", "setting": "[1]; 0.8 mg/kg oral in peanut butter (average 0.24 mg delivered)", "value": 30, "unit": "µM"}, {"measurement": "estimated circulating concentration", "setting": "[1]; 2.4 mg/kg oral in peanut butter (on average 0.72 mg delivered)", "value": 90, "unit": "µM"}, {"measurement": "number and size of microaneurysms after treatment", "setting": "hyperglycemic rats; [3]", "value": "differences"}, {"measurement": "retinal layer thickness (INL or ONL) or thickness of the choroid, treated vs untreated", "setting": "hyperglycemic rats; [3]", "value": "no significant difference"}, {"measurement": "hyperreflective spot on OCT after treatment", "setting": "hyperglycemic rats; 0.28 mg/kg once daily for 14 days, 8 weeks", "value": "barely visible"}, {"measurement": "clinical signs, including the presence of aneurysms", "setting": "hyperglycemic rats; DR model, daily treatment for two weeks", "value": "reduced"}, {"measurement": "micro- and macro-aneurysms compared to placebo controls", "setting": "hyperglycemic rats; oral, DR model", "value": "regression"}, {"measurement": "body weight, treated vs untreated hyperglycemic rats", "setting": "[2]", "value": "no difference"}]}]}
